According to PMC12395000 (RSC Advances, 2025):
Each block holds one compound with its values, some of them ahead of it.

What was measured:
EGFR = EGFR (Homo sapiens, UniProt P00533); test: EGFR kinase inhibitory assay; format: biochemical; conditions: for IC50: EGFR IC50 ± SD
HCT-116 cancer cells = test: MTT cytotoxicity assay, HCT-116; format: cell-based; conditions: Homo sapiens, HCT-116, 48 h, read-out: IC50 ± SD
WI-38 cells = test: MTT cytotoxicity assay, normal WI-38; format: cell-based; conditions: Homo sapiens, WI-38, 48 h, read-out: IC50 ± SD
[1] = test system: P53, Bax, caspase-3, caspase-8, caspase-9, Bcl-2 genes in HCT-116 cells; test: RT-PCR gene expression of apoptosis-related genes; format: cell-based; conditions: HCT-116, IC50 = 1.34 μM, 48 h
HCT-116 cells [2] = test: Annexin V/PI staining flow cytometry; format: cell-based
HCT-116 cells [3] = test: DNA-content cell cycle analysis by flow cytometry; format: cell-based; conditions: HCT-116, IC50 = 1.34 μM, 48 h; control 54.19%
[4] = three replicates, concentrations 0.001-10 μM

Sequence of EGFR (P00533 25-1210): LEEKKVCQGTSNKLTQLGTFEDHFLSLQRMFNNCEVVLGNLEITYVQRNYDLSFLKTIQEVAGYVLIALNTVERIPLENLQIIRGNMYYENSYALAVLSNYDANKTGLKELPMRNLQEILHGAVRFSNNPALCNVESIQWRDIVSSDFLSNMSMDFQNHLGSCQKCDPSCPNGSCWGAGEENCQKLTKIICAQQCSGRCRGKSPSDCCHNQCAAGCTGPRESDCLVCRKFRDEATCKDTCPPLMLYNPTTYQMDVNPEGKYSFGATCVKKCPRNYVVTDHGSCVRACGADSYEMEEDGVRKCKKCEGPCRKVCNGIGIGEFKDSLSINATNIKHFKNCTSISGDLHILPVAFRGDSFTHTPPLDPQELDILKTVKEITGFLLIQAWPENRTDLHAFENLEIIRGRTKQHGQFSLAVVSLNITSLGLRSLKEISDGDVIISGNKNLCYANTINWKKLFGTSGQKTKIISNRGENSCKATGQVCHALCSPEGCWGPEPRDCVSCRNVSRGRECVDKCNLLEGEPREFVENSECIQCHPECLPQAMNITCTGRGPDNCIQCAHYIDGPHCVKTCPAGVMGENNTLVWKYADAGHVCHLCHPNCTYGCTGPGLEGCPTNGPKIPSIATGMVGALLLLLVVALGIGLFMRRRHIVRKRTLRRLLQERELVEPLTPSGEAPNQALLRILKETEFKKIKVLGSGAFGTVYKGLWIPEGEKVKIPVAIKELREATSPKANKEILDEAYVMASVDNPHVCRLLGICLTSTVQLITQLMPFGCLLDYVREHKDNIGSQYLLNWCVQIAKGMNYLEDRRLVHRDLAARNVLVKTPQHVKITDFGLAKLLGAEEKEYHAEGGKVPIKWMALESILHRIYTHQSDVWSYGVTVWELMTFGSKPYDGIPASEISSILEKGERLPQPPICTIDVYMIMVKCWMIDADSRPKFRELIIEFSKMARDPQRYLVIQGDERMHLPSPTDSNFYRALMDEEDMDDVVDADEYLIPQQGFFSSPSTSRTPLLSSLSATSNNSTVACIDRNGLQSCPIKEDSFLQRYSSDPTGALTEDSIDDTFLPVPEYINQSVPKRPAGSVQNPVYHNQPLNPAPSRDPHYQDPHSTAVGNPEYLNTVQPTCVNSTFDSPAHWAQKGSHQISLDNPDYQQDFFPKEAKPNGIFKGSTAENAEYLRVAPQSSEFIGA

Compound: CC1=C(C(=O)Nc2ccccn2)C(c2ccc3ccc4cccc5ccc2c3c45)NC(=S)N1 (stereo not drawn) [Compound 4b, 6-Methyl-4-(pyren-1-yl)-N-(pyridin-2-yl)-2-thioxo-1,2,3,4-tetrahydropyrimidine-5-carboxamide]
IC50 (EGFR; [4]): 77 ± 4.36 nM
Bax gene expression fold change [1]: 3.54 fold change
P53 gene expression fold change [1]: 6.85 fold change
caspase-3 gene expression fold change [1]: 8.37 fold change
caspase-8 gene expression fold change [1]: 2.3 fold change
caspase-9 gene expression fold change [1]: 6.80 fold change
Bcl-2 gene expression fold change ([1]; antiapoptotic gene, decreased): 0.37 fold change
apoptosis induction versus control (HCT-116 cells [2]; HCT-116): 30.2 fold
necrosis (HCT-116 cells [2]; HCT-116, IC50 = 1.34 μM, 48 h, Q1, control 2.13%): 5.58%
late apoptosis (HCT-116 cells [2]; HCT-116, IC50 = 1.34 μM, 48 h, Q2): 7.36%
early apoptosis (HCT-116 cells [2]; HCT-116, IC50 = 1.34 μM, 48 h, Q4): 19.24%
cells that died by apoptosis (total) (HCT-116 cells [2]; HCT-116, treated at IC50 = 1.34 μM, 48 h, control 0.88%): 26.60%
IC50 (HCT-116 cancer cells): 1340 ± 400 nM
cell population at G1-phase (%DIP G1) (HCT-116 cells [3]): 87.55%
IC50 (WI-38 cells): ≥ 50000 nM

Compound: CC1=C(C(=O)Nc2ccccc2)C(c2ccc3ccc4cccc5ccc2c3c45)NC(=S)N1 (stereo not drawn) [Compound 4a, 6-Methyl-N-phenyl-4-(pyren-1-yl)-2-thioxo-1,2,3,4-tetrahydropyrimidine-5-carboxamide]
IC50 (EGFR; [4]): 104 ± 5.67 nM
EGFR inhibition percentage (EGFR; concentration not given): 82.3%
IC50 (HCT-116 cancer cells): 4800 nM
IC50 (WI-38 cells): ≥ 50000 nM

Compound: C#Cc1cccc(Nc2ncnc3cc(OCCOC)c(OCCOC)cc23)c1 [Erlotinib, reference compound]
IC50 (HCT-116 cancer cells): 1320 ± 200 nM
IC50 (WI-38 cells): ≥ 50000 nM

Further lines, with some results ahead:

IC50 (EGFR; [4]): 94.9 ± 4.95 nM
Compound: CC1=C(C(=O)Nc2cccnc2)C(c2ccc3ccc4cccc5ccc2c3c45)NC(=S)N1 (stereo not drawn) [Compound 4c, 6-Methyl-4-(pyren-1-yl)-N-(pyridin-3-yl)-2-thioxo-1,2,3,4-tetrahydropyrimidine-5-carboxamide]
IC50 (HCT-116 cancer cells): 1900 ± 300 nM
IC50 (WI-38 cells): ≥ 50000 nM

EGFR IC50 ± SD (EGFR; [4]): non-detected
Compound: Cc1[nH]c(=O)nc2c1c(=O)oc1ccc3ccccc3c12 [Compound 16, 4-Methyl-2H-benzo[5,6]chromeno[4,3-d]pyrimidine-2,5(3H)-dione]
IC50 (HCT-116 cancer cells): 6460 nM
IC50 (WI-38 cells): ≥ 50000 nM
